Literature values as cited in patent EP0763114B1, “HEPATITIS G VIRUS AND MOLECULAR CLONING THEREOF” (priority 1994, dated 1995).

Tested on: HCV
Settings: individuals infected with HCV, while ribavirin was administered

Structure (SMILES): NC(=O)c1ncn([C@@H]2O[C@H](CO)[C@@H](O)[C@H]2O)n1 [ribavirin, 1-B-D-ribofuranosyl-1-2,4-triazole, 3-carboxamide]
- serum levels of alanine aminotransferase (ALT): significant reductions
- viral titer: significant reductions
